{
  "source": "patent US11946934B2",
  "about": "“Biomarker for predicting the sensitivity to a protein kinase inhibitor and a use thereof” (Wellmarker Bio Co., LTD., priority 2014, dated 2024)",
  "key": {"RON (p-RON) in HT29": {"system": "RON (p-RON) in HT29", "test": "Inhibition of RON phosphorylation in HT29 colon cancer cells", "type": "cell-based", "settings": "HT29, various concentrations", "method": "(§1) The cells in the sample were lysed using RIPA buffer and the protein was extracted therefrom using a high speed centrifuge. The protein in an amount of 30 μg per cell was separated by electrophoresis, transferred onto a PDVF membrane by western blot, and allowed to react with RON antibodies, which were diluted in 5% skim milk at a 1:2000 ratio, at 4° C. for 12 hours. Then, the resultant was washed 3 times with TBS-T buffer for 15 minutes per wash, reacted with the secondary antibodies, which were diluted in 5% skim milk at a 1:2000 ratio, at room temperature for 2 hours, washed 3 times with TBS-T buffer for 15 minutes per wash. The illumination of the PDVF membrane was induced using ECL buffer and the expression of the RON protein was developed using an X-ray film. Additionally, 1 μg of the RON antibody was added to the protein in an amount of 500 μg per cell by immunoprecipitation method, reacted at 4° C. for 12 hours, and anti-antibody beads were added thereto to immunoprecipitate the RON antibody. The resultant was separated by electrophoresis, transferred onto a PDVF membrane by western blot, and allowed to react with p-Tyr antibodies, which were diluted in 5% skim milk at a 1:1000 ratio, at 4° C. for 12 hours. […]"}, "RON (p-RON) in HCT8": {"target": "T1, RON (p-RON) in HCT8 (Homo sapiens, UniProt Q04912)", "T1 construct": "endogenous in cells; host or cells: HCT8 (cultured, and as xenograft tumour in nude mice)", "T1 sequence (Q04912 25-1400)": "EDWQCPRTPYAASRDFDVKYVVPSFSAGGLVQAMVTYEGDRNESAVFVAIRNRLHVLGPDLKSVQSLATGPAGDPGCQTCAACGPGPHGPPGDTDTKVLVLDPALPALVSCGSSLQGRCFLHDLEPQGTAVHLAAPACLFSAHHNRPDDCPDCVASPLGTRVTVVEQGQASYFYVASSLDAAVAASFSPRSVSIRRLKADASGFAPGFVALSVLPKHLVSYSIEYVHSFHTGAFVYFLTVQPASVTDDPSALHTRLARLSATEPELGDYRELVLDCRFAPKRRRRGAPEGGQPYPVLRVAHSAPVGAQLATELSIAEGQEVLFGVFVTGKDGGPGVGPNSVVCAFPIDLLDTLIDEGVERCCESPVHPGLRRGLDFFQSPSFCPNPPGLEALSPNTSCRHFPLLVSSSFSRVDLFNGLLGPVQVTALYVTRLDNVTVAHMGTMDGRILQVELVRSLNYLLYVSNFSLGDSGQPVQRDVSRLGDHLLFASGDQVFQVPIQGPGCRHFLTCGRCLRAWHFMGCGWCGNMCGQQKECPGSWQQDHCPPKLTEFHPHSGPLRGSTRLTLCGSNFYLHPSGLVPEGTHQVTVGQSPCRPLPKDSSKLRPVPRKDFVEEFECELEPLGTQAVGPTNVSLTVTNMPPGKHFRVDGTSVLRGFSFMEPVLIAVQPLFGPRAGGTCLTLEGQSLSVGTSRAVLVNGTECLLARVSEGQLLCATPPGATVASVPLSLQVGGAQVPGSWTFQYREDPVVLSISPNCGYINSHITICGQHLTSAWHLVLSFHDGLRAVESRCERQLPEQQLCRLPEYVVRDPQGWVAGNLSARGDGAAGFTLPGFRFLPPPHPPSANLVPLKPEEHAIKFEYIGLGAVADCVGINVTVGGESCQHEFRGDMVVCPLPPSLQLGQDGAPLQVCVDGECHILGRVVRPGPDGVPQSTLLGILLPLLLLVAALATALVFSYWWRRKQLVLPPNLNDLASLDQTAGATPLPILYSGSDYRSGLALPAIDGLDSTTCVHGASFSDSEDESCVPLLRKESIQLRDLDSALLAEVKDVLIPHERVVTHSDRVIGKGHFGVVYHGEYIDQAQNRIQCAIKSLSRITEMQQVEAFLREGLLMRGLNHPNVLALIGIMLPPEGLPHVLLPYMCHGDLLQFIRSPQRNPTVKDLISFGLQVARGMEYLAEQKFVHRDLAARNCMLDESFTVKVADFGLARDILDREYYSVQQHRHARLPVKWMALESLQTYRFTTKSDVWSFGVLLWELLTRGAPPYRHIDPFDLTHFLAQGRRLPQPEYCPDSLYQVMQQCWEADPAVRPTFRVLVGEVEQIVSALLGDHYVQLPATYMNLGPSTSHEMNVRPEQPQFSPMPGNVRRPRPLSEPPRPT", "test": "Inhibition of RON phosphorylation in HCT8 colon cancer cells", "type": "cell-based", "settings": "HCT8, various concentrations", "method": "as §1"}, "RON-active Δ155": {"target": "T2, RON-active Δ155 (Homo sapiens, UniProt Q04912, DEL574-682/INS813Q)", "T2 construct": "expressed in transfected cells; host or cells: Colo320HSR", "T2 sequence (Q04912 with tags, fused parts or gaps isoform Q04912-2 DEL574-682/INS813Q)": "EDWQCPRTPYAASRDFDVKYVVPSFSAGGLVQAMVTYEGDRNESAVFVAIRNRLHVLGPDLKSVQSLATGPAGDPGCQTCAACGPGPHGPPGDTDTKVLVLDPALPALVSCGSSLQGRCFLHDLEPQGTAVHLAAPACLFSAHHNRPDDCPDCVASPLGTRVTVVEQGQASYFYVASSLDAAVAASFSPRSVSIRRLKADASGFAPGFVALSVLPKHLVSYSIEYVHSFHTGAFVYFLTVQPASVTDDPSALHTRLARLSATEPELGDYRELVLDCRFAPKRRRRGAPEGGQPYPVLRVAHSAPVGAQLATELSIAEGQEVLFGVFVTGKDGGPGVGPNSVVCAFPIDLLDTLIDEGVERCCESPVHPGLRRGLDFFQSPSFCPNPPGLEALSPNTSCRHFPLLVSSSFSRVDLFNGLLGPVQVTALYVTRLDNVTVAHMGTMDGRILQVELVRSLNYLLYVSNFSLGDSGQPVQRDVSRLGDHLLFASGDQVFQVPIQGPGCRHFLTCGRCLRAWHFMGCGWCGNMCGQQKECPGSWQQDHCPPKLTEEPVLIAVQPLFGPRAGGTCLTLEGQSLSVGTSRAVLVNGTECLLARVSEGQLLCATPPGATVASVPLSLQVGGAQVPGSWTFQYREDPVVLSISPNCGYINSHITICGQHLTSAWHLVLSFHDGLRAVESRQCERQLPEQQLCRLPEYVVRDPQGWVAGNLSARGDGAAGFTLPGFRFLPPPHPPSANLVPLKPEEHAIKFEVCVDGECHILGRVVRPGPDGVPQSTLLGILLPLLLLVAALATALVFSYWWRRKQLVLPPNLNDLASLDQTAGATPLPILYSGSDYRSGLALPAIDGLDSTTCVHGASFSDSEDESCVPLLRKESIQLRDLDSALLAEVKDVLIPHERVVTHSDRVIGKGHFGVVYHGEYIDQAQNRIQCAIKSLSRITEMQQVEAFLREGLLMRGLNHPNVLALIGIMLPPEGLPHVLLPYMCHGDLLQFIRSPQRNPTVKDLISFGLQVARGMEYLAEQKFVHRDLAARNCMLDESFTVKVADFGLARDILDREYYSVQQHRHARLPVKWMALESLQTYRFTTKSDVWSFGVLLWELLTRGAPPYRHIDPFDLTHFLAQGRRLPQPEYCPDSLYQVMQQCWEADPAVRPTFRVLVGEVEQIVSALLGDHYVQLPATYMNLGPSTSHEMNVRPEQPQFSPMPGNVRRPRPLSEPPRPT", "test": "Inhibition of RON phosphorylation in Colo320HSR introduced with RON variant", "type": "cell-based", "settings": "Colo320HSR with RON-active Δ155 gene", "method": "as §1"}, "RON-active Δ160": {"system": "RON-active Δ160", "test": "Inhibition of RON phosphorylation in Colo320HSR introduced with RON variant", "type": "cell-based", "settings": "Colo320HSR with RON-active Δ160 gene", "method": "as §1"}, "HCT8 [1]": {"system": "HCT8", "test": "Induction of apoptosis", "type": "cell-based", "method": "(§2) HT29 and HCT8, the colon cancer cell lines which have a high p-RON expression level because RON is always phosphorylated, were treated with CJ12524 in order to confirm the presence of apoptosis."}, "HT29": {"system": "HT29", "test": "Induction of apoptosis", "type": "cell-based", "method": "as §2"}, "[2]": {"system": "Colo320HSR introduced with RON-active Δ155 gene", "test": "Induction of apoptosis", "type": "cell-based", "from_the_text": "(§3) Additionally, Colo320HSR, the colon cancer cell line in which RON is not expressed, was introduced with the RON-active Δ155 gene and the RON-active Δ160 gene, which are constantly active in the Colo320HSR, and treated with CJ12524 at various concentrations in order to confirm the presence of apoptosis."}, "[3]": {"system": "Colo320HSR introduced with RON-active Δ160 gene", "test": "Induction of apoptosis", "type": "cell-based", "from_the_text": "as §3"}, "HCT8 [4]": {"system": "HCT8", "test": "Cell invasion (cell metastasis)", "type": "cell-based", "settings": "HCT8, FIG. 7e", "method": "HCT8, a colon cancer cell line where RON is always phosphorylated, was treated with CJ12524 in order to confirm the degree of cell invasion."}, "[5]": {"system": "HCT8 cell line xenograft in nude mice", "test": "RON-active cancer cell xenograft model, tumor size, tumor weight, body weight", "type": "in vivo, mouse", "method": "For analyzing the drug sensitivity to CJ12524 in an in-vivo state, the present inventors transplanted a cancer cell line which was determined to be positive against the RON activity into nude mice, and thereby a cancer cell-derived xenograft model ([…]) was prepared."}, "RON phosphorylation": {"target": "T3, RON phosphorylation (Homo sapiens, UniProt Q04912)", "T3 construct": "endogenous in cells; host or cells: HCT8 (cultured, and as xenograft tumour in nude mice)", "T3 sequence (Q04912 25-1400)": "as the sequence (Q04912 25-1400) above", "test": "RON phosphorylation in tumor tissue of the HCT8 xenograft model (immunochemical staining, western blot)", "type": "in vivo", "settings": "after completion of administration, FIG. 8c, 8d", "method": "as §1"}, "[6]": {"system": "Colo320HSR control (pMET & pRON negative, without RON activity)", "test": "Colo320HSR xenograft animal model, inhibition of tumor growth", "type": "in vivo", "settings": "various concentrations", "method": "(§4) Specifically, an animal model using the Colo320HSR cell line without RON activity (control group) and an animal model using the cell line introduced with the RON-active Δ155 gene and the RON-active Δ160 gene, which are constantly expressed, or a RON M1254T mutant were prepared, and their effects of inhibiting tumor formation by CJ12537 were compared."}, "[7]": {"system": "Colo320HSR introduced with RON Δ155", "test": "Colo320HSR xenograft animal model, inhibition of tumor growth", "type": "in vivo", "settings": "RON-active variant Δ155", "method": "as §4"}, "[8]": {"system": "Colo320HSR introduced with RON Δ160", "test": "Colo320HSR xenograft animal model, inhibition of tumor growth", "type": "in vivo", "method": "as §4"}, "[9]": {"system": "MKN1 cells transplanted into Balb/c nude mice", "test": "Stomach cancer cell xenograft mouse model without RON activity, tumor volume", "type": "in vivo", "settings": "30 mpk and 100 mpk oral daily, FIG. 9", "from_the_text": "It was confirmed whether tumor formation can be inhibited by CJ12537 in a stomach cancer xenograft mouse model without RON activity.\nSpecifically, 5-to 6-week-old Balb/c nude mice were subcutaneously injected with 1×10^7 cells (MKN1 parent, MKN1 RONΔ160 stable cell) and Matrigel at a 1:1 (v/v) ratio. When the tumor size grew to a size of 90 mm^3 to 100 mm^3, the mice were divided into groups and administered with drugs. Vehicle, CJ12537 (30 mpk), CJ12537 (100 mpk), and positive control (Amgen; 30 mpk) were orally administered daily. The tumor size was measured once in three days. Upon completion of the administration, the mice were sacrificed and tissues were ablated and the weight of tumor was measured. In particular, proteins were extracted from the tissues and the changes in expression pattern of p-RON and related proteins were confirmed by western blot analysis. Additionally, for confirming the change in tumor size, the tumor size was measured once every three days and compared and analyzed even after the completion of drug administration."}, "[10]": {"settings": "various concentrations, 14 days, FIG. 8a"}},
  "note": "“Also recorded” adds a separate entry of the source.",
  "data": [
    {"smiles": "CCOc1ccn(-c2ccc(F)cc2)c(=O)c1C(=O)Nc1ccc(Oc2ccnc3cc(-c4ccccn4)sc23)c(F)c1", "note": "[CJ12524, 4-ethoxy-N-(3-fluoro-4-(2-(pyridin-2-yl)thieno[3,2-b]pyridin-7-yloxy)phenyl)-1-(4-fluorophenyl)-2-oxo-1,2-dihydropyridin-3-carboxamide]", "values": [
      {"measurement": "RON phosphorylation", "setting": "RON (p-RON) in HT29", "value": "inhibited; also recorded: reduced"},
      {"measurement": "RON phosphorylation", "setting": "RON (p-RON) in HCT8", "value": "inhibited; also recorded: reduced"},
      {"measurement": "RON phosphorylation", "setting": "RON-active Δ155", "value": "reduced"},
      {"measurement": "RON phosphorylation", "setting": "RON-active Δ160", "value": "reduced"},
      {"measurement": "expression of cleaved caspase 3", "setting": "HCT8 [1]; HCT8", "value": "increased"},
      {"measurement": "apoptosis", "setting": "HCT8 [1]; HCT8, various concentrations, according to the concentration, FIG. 7c", "value": "increased"},
      {"measurement": "expression of cleaved caspase 3", "setting": "HT29; HT29", "value": "increased"},
      {"measurement": "apoptosis", "setting": "HT29; HT29, various concentrations, according to the concentration, FIG. 7c", "value": "increased"},
      {"measurement": "expression of cleaved caspase 3 (apoptosis marker)", "setting": "[2]; Colo320HSR RON-active Δ155, according to the concentration", "value": "increased"},
      {"measurement": "apoptosis", "setting": "[2]; Colo320HSR RON-active Δ155, various concentrations, FIG. 7d", "value": "increased"},
      {"measurement": "expression of cleaved caspase 3 (apoptosis marker)", "setting": "[3]; Colo320HSR RON-active Δ160, according to the concentration", "value": "increased"},
      {"measurement": "apoptosis", "setting": "[3]; Colo320HSR RON-active Δ160, various concentrations, FIG. 7d", "value": "increased"},
      {"measurement": "inhibition of the degree of cell metastasis (cell invasion)", "setting": "HCT8 [4]", "value": "about 60%"},
      {"measurement": "tumor weight upon completion of drug administration", "setting": "[5]; all treated groups, FIG. 8b", "value": "reduced"},
      {"measurement": "body weight of the mice", "setting": "[5]; [10]", "value": "almost no decrease"},
      {"measurement": "tumor growth (tumor size)", "setting": "[5]; [10]", "value": "inhibited"},
      {"measurement": "RON phosphorylation in tumor tissue", "setting": "RON phosphorylation", "value": "decreased"}
    ]},
    {"smiles": "CCOc1ccn(-c2ccc(F)cc2)c(=O)c1C(=O)Nc1ccc(Oc2ccnc3cc(-c4cn(C)cn4)sc23)c(F)c1", "note": "[CJ12537, 4-ethoxy-N-(3-fluoro-4-(2-(1-methyl-1H-imidazol-4-yl)thieno[3,2-b]pyridin-7-yloxy)phenyl)-1-(4-fluorophenyl)-2-oxo-1,2-dihydropyridin-3-carboxamide]", "values": [
      {"measurement": "tumor formation", "setting": "[6]", "value": "did not inhibit tumor formation at all"},
      {"measurement": "tumor formation", "setting": "[7]", "value": "inhibited tumor formation"},
      {"measurement": "Tumor growth relative to vehicle (fold)", "setting": "[8]; Colo320HSR RON Δ160, 30 MPK, vehicle = 1", "value": 0.71, "unit": "fold"},
      {"measurement": "tumor formation", "setting": "[8]; RON-active variant Δ160", "value": "inhibited tumor formation"},
      {"measurement": "tumor volume", "setting": "[9]", "value": "no noticeable change"}
    ]}
  ]
}
